# Reference: patent US12428458B2, “Therapeutic agent for psoriasis” (StemRIM Inc., priority 2018, dated 2025)
# How the values were obtained:
# Assay type in all cases: in vivo, C57BL/6 mice
# psoriasis model mice [1] = test: PASI score in imiquimod-induced psoriasis model mice (Example 1)
# Text: (§1) In order to induce psoriasis using imiquimod, a cream containing 5% imiquimod (Beselna Cream 5%, manufactured by Mochida Pharmaceutical Co., Ltd.) was used. Imiquimod is represented as IMQ in the drawings corresponding to the Examples of this application. A peptide consisting of amino acid residues 1-44 of the human-derived HMGB1 protein (SEQ ID NO: 1) was chemically synthesized by a solid-phase method. Hereinafter, the HMGB1 fragment peptide is referred to as the HMGB1 peptide (1-44) and is expressed as an abbreviation “1-44” in the drawings corresponding to the Examples.
# (§2) C57BL/6 mice (7-week-old, female, body weight about 20 g) were prepared, and the hair on the back was removed. In order to induce psoriasis, the cream containing 5% imiquimod was applied to the dorsal skin of the mice at a dose of 1.25 g/animal/day (62.5 mg/animal/day as imiquimod) once a day for four days. In the following, the day when imiquimod was first applied is represented as “the 1st day of the start of imiquimod application (Day 1)”, and the next day onward is represented as “the Xth day from the start of imiquimod application (Day X)”. That is, the last day that imiquimod was applied was the 4th day from the start of imiquimod application (Day 4), and no application was performed on the 5th day from the start of imiquimod application (Day 5).
# The psoriasis model mice produced as described above were divided into the HMGB1 peptide (1-44) administration group (n=3) and the control group (n=3). The test substance was administered by injecting an HMGB1 peptide (1-44) solution, which has been adjusted to a concentration of 1 μg/μl with saline as the vehicle, into the vein at a dose of 100 μl/day (5 mg/kg/day as the peptide dose) for three days from the 1st day of the start of imiquimod application (Day 1). […]
# The degree of the symptoms of psoriasis on the dorsal skin of the mice was evaluated by the PASI score for five days from the 1st day of the start of imiquimod application. The PASI score was calculated by quantifying the degree of each of (a) erythema, (b) scaling (desquamation), and (c) thickening (infiltration) of skin using five stages, [no symptoms: 0 points, mild: 1 point, moderate: 2 points, severe: 3 points, and extremely severe: 4 points], and summing up the values of (a), (b), and (c) (minimum 0 points-maximum 12 points).
# (a) The erythema score was determined by using the photographs of the back of mice shown in FIG. 1 as a criterion for each score and visually comparing them with the condition of the back of the mice to be evaluated. (b) The scaling score was determined by using the photographs of the back of mice shown in FIG. 2 as a criterion for each score and visually comparing them with the condition of the back of the mice to be evaluated. (c) The thickening score was determined as follows: Two measurement sites were determined on the back of the mice, the skin was pinched and its thickness was measured with a caliper, and the average value from the two sites was recorded daily as the skin thickness (mm). Quantification was carried out by giving 0 points when the value of skin thickness of each day relative to the skin thickness on the 1st day of the start of imiquimod application (before application) was less than 1.1, 1 point when the value was 1.1 or more to less than 1.3, 2 points when the value was 1.3 or more to less than 1.5, 3 points when the value was 1.5 or more to less than 1.7, and 4 points when the value was 1.7 or more.
# [2] = test system: inflammatory cytokines (IL-6, IL-17F, and IL-22); test: Expression levels of inflammatory cytokines in dorsal skin by quantitative PCR (Example 1); details: mRNA, Day 5, 5 mg/kg/day i.v. for three days, vs control group
# Text: as §1, §2
# The psoriasis model mice produced as described above were divided into the HMGB1 peptide (1-44) administration group (n=3) and the control group (n=3). […]
# (§3) On the 5th day from the start of imiquimod application (Day 5), the dorsal skin of the mice was collected, mRNA was extracted from the skin, and the expression levels of the inflammatory cytokines (IL-6, IL-17F, and IL-22), which are known to be involved in the pathogenesis of psoriasis, were analyzed by quantitative PCR.
# psoriasis model mice [3] = test: PASI score in imiquimod-induced psoriasis model mice (Example 2); details: 5 mg/kg/day i.v. for three days, up to Day 4, vs control group (saline), n=6
# Procedure: (§4) The drugs were prepared and the psoriasis model mice were produced in the same way as Example 1. The peptides were administered in the same way as Example 1 except that the number of mice was changed to six in both the HMGB1 peptide (1-44) administration group and the control group.
# The degree of the symptoms of psoriasis on the dorsal skin of the mice was evaluated by the PASI score for four days from the 1st day of the start of imiquimod application. The PASI score was calculated in the same manner as Example 1.
# [4] = test system: inflammatory cytokines (IL-1β, IL-6, IL-17A, IL-17F, and IL-22); test: Expression levels of inflammatory cytokines in dorsal skin by quantitative PCR (Example 2); details: mRNA, Day 5, 5 mg/kg/day i.v. for three days, vs control group
# Procedure: as §4
# as §3, with “application,” for “application (Day 5),”, “(IL-1β, IL-6, IL-17A,” for “(IL-6,”
# [5] = 5 mg/kg/day i.v. for three days, up to Day 5, vs control group
substance,measurement,setting,value
"HMGB1 peptide (1-44): peptide consisting of amino acid residues 1-44 of the human-derived HMGB1 protein (SEQ ID NO: 1), chemically synthesized by a solid-phase method (MGKGDPKKPRGKMSSYAFFVQTCREEHKKKHPDASVNFSEFSKK)",PASI score,"psoriasis model mice [1]; 5 mg/kg/day i.v. for three days from Day 1, up to Day 5, vs control group (saline), n=3",lower than those in the control group
same,PASI score on the 5th day from the start of imiquimod application,"psoriasis model mice [1]; 5 mg/kg/day i.v. for three days, Day 5, vs control group (saline), p<0.05, 5 mg/kg/day",significantly lower than that in the control group
same,erythema score,psoriasis model mice [1]; [5],lower than those in the control group
same,scaling score,psoriasis model mice [1]; [5],lower than those in the control group
same,thickening score,psoriasis model mice [1]; [5],lower than those in the control group
same,expression level of IL-6 in the skin,[2],lower than those in the control group
same,expression level of IL-17F in the skin,[2],lower than those in the control group
same,expression level of IL-22 in the skin,[2],lower than those in the control group
same,PASI score,psoriasis model mice [3],lower than that in the control group
same,expression level of IL-1β in the skin,[4],lower than those in the control group
same,expression level of IL-6 in the skin,[4],lower than those in the control group
same,expression level of IL-17A in the skin,[4],lower than those in the control group
same,expression level of IL-17F in the skin,[4],lower than those in the control group
same,expression level of IL-22 in the skin,[4],lower than those in the control group
